Assay results taken from ChEMBL document CHEMBL1126300, “Quinoline antifolate thymidylate synthase inhibitors: variation of the C2- and C4-substituents” (J Med Chem, 1992).

What was measured:
[1] = tested on: L1210; experiment: In vitro inhibition of L1210 mouse leukemia cell growth in culture; type: functional, cell-based
[2] = target: Thymidylate synthase (Mus musculus, UniProt P07607); experiment: In vitro inhibitory activity against thymidylate synthase from L1210 mouse leukemia cells; type: cell-based
[3] = tested on: WIL2; experiment: Inhibition of human derived cell line W1-L2 cell proliferation; type: functional, cell-based

Thymidylate synthase, sequence (P07607 whole entry): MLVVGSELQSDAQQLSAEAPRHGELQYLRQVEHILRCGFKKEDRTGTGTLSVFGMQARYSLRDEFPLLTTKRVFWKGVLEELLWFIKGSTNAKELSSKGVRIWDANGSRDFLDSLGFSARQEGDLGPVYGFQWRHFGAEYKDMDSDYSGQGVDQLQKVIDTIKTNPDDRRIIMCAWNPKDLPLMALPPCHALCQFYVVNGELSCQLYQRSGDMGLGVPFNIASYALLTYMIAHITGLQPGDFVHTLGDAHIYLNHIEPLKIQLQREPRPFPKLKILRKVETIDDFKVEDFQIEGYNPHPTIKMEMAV

| SMILES | IC50 [1] [nM] | IC50 [2] [nM] | IC50 [3] [nM] |
| --- | --- | --- | --- |
| C#CCN(Cc1ccc2nc(Cl)ccc2c1)c1ccc(C(=O)N[C@@H](CCC(=O)O)C(=O)O)cc1 | > 100000 | 2600 | – |
| C#CCN(Cc1ccc2nc(C)cc(O)c2c1)c1ccc(C(=O)N[C@@H](CCC(=O)O)C(=O)O)cc1 | > 100000 | 6300 | – |
| C#CCN(Cc1ccc2nc(NC(C)=O)cc(Cl)c2c1)c1ccc(C(=O)N[C@@H](CCC(=O)O)C(=O)O)cc1 | > 100000 | 1200 | – |
| C#CCN(Cc1ccc2nc(N)cc(Cl)c2c1)c1ccc(C(=O)N[C@@H](CCC(=O)O)C(=O)O)cc1 | 11000 | 96 | – |
| C#CCN(Cc1ccc2nc(C)cc(C)c2c1)c1ccc(C(=O)N[C@@H](CCC(=O)O)C(=O)O)cc1 | > 100000 | – | – |
| C#CCN(Cc1ccc2nc(OC)cc(Cl)c2c1)c1ccc(C(=O)N[C@@H](CCC(=O)O)C(=O)O)cc1 | > 100000 | 9000 | – |
| CCN(Cc1ccc2nc(CO)cc(Cl)c2c1)c1ccc(C(=O)N[C@@H](CCC(=O)O)C(=O)O)cc1 | > 100000 | 1050 | – |
| C#CCN(Cc1ccc2nc(C)cc(Br)c2c1)c1ccc(C(=O)N[C@@H](CCC(=O)O)C(=O)O)cc1 | 14000 | 220 | – |
| C#CCN(Cc1ccc2[nH]c(N)nc(=O)c2c1)c1ccc(C(=O)N[C@@H](CCC(=O)O)C(=O)O)cc1 | – | – | 440 |
| C#CCN(Cc1ccc2nc(CC)cc(Cl)c2c1)c1ccc(C(=O)N[C@@H](CCC(=O)O)C(=O)O)cc1 | > 100000 | 990 | – |
| C#CCN(Cc1ccc2nc(C(=O)O)cc(Cl)c2c1)c1ccc(C(=O)N[C@@H](CCC(=O)O)C(=O)O)cc1 | > 100000 | 31000 | – |
| C#CCN(Cc1ccc2nc(C)ccc2c1)c1ccc(C(=O)N[C@@H](CCC(=O)O)C(=O)O)cc1 | > 100000 | 7900 | – |
| C#CCN(Cc1ccc2nc(N)cc(Cl)c2c1)c1ccc(C(=O)N[C@@H](CCC(=O)O)C(=O)O)c(F)c1 | 2900 | 48 | – |
| C#CCN(Cc1ccc2nc(C)cc(SC)c2c1)c1ccc(C(=O)N[C@@H](CCC(=O)O)C(=O)O)cc1 | 100000 | 8900 | – |
| C#CCN(Cc1ccc2nc(Cl)cc(Cl)c2c1)c1ccc(C(=O)N[C@@H](CCC(=O)O)C(=O)O)cc1 | 8000 | – | – |
| C#CCN(Cc1ccc2nc(C)cc(Cl)c2c1)c1ccc(C(=O)N[C@@H](CCC(=O)O)C(=O)O)cc1 | 8000 | 250 | – |

| SMILES | IC50 [1] [nM] | IC50 [2] [nM] | IC50 [3] [nM] |
| --- | --- | --- | --- |
| C#CCN(Cc1ccc2nc(CF)cc(Cl)c2c1)c1ccc(C(=O)N[C@@H](CCC(=O)O)C(=O)O)cc1 | > 100000 | 620 | – |
| CCN(Cc1ccc2nc(N)cc(OC)c2c1)c1ccc(C(=O)N[C@@H](CCC(=O)O)C(=O)O)cc1 | 100000 | 1900 | – |
| C#CCN(Cc1ccc2nc(N)cc(C)c2c1)c1ccc(C(=O)N[C@@H](CCC(=O)O)C(=O)O)cc1 | 4000 | 350 | – |
| C#CCN(Cc1ccc2nc(C)cc(OC)c2c1)c1ccc(C(=O)N[C@@H](CCC(=O)O)C(=O)O)cc1 | > 100000 | 6000 | – |
| C#CCN(Cc1ccc2nc(C)cc(Br)c2c1)c1ccc(C(=O)N[C@@H](CCC(=O)O)C(=O)O)c(F)c1 | 1000 | 96 | – |
| C#CCN(Cc1ccc2nc(Cl)cc(Cl)c2c1)c1ccc(C(=O)N[C@@H](CCC(=O)O)C(=O)O)c(F)c1 | 1000 | 23 | – |
| Cc1cc(Cl)c2cc(CN(C)c3ccc(C(=O)N[C@@H](CCC(=O)O)C(=O)O)cc3)ccc2n1 | 24000 | 2300 | – |
| CCN(Cc1ccc2nccc(Cl)c2c1)c1ccc(C(=O)N[C@@H](CCC(=O)O)C(=O)O)cc1 | 30000 | 1130 | – |
| C#CCN(Cc1ccc2nc(Cl)cc(OC)c2c1)c1ccc(C(=O)N[C@@H](CCC(=O)O)C(=O)O)cc1 | – | 150 | – |
| Cc1cc(Cl)c2cc(CNc3ccc(C(=O)N[C@@H](CCC(=O)O)C(=O)O)cc3)ccc2n1 | > 100000 | 38000 | – |
| C#CCN(Cc1ccc2nc(C)cc(C#N)c2c1)c1ccc(C(=O)N[C@@H](CCC(=O)O)C(=O)O)cc1 | 75000 | 1500 | – |
| C#CCN(Cc1ccc2nc(Cl)cc(C)c2c1)c1ccc(C(=O)N[C@@H](CCC(=O)O)C(=O)O)cc1 | > 100000 | 120 | – |
| C#CCN(Cc1ccc2nc(C)cc(Cl)c2c1)c1ccc(C(=O)N[C@@H](CCC(=O)O)C(=O)O)c(F)c1 | 420 | 66 | – |
| CCN(Cc1ccc2nc(C)cc(Cl)c2c1)c1ccc(C(=O)N[C@@H](CCC(=O)O)C(=O)O)cc1 | 23000 | 740 | – |
| C#CCN(Cc1ccc2nc(C(N)=O)cc(Cl)c2c1)c1ccc(C(=O)N[C@@H](CCC(=O)O)C(=O)O)cc1 | > 100000 | 1900 | – |
| C#CCN(Cc1ccc2nc(C(F)(F)F)cc(Cl)c2c1)c1ccc(C(=O)N[C@@H](CCC(=O)O)C(=O)O)cc1 | > 100000 | 150 | – |
